Values after ≈ are worked out from the molar mass of the structure shown. Values joined by “and” are separate entries in the source; they are usually repeats but may differ in a detail not shown here. Equal values may be shown once.
Experiments:
U373 MG = assay: In vitro cytotoxicity against glioblastoma cell line; assay type: functional, cell-based, U-373MG ATCC; conditions: Homo sapiens
A-431 = assay: In vitro cytotoxicity against epidermoid carcinoma cell line; assay type: functional, cell-based; conditions: Homo sapiens
BC1 cell line = assay: In vitro cytotoxicity against breast cancer cell line; assay type: functional, cell-based; conditions: Homo sapiens
Colon carcinoma cell = assay: In vitro cytotoxicity against colon cancer cell line; assay type: functional, cell-based; conditions: Homo sapiens
P388 = assay: In vitro cytotoxicity against murine lymphoid neoplasm cell line; assay type: functional, cell-based; conditions: Mus musculus
Fibrosarcoma cell line = assay: In vitro cytotoxicity against fibrosarcoma cell line; assay type: functional, cell-based; conditions: Homo sapiens
Lung cancer cell line = assay: In vitro cytotoxicity against lung cancer cell line; assay type: functional, cell-based; conditions: Homo sapiens
KB [1] = assay: In vitro cytotoxicity against oral epidermoid carcinoma cell line; assay type: functional, cell-based; conditions: Homo sapiens
KB [2] = assay: In vitro cytotoxicity against vinblastine resistant KB cell line; assay type: functional, cell-based; conditions: Homo sapiens
HT-29 = assay: Compound was tested for cytotoxicity against colon adenocarcinoma; assay type: functional, cell-based, Homo sapiens
SK-OV-3 [3] = assay: Comparison of cytotoxicity of calycopterone and flavone with doxorubicin against ovarian adenocarcinoma; assay type: functional, cell-based, Homo sapiens
SK-VLB [4] = assay: Compound was tested for cytotoxicity against ovarian adenocarcinoma, multidrug resistant; assay type: functional, cell-based; conditions: Homo sapiens
SK-OV-3 [5] = assay: Compound was tested for cytotoxicity against ovarian adenocarcinoma; conditions: Homo sapiens
SK-VLB [6] = assay: Compound was tested for cytotoxicity against ovarian adenocarcinoma, multidrug resistant; conditions: Homo sapiens

Compound: COC1=C(OC)[C@@]2(OC)c3c(OC)c(O)c4c(c3O[C@@]23O[C@@H](c2ccccc2)CC=C3C1=O)[C@@H](OC)C[C@H](c1ccccc1)O4
- EC50 (U373 MG): 0.8 µg/mL (≈ 1.3 µM)
- EC50 (A-431): 0.4 µg/mL (≈ 0.651 µM)
- EC50 (BC1 cell line): 0.4 µg/mL (≈ 0.651 µM)
- EC50 (Colon carcinoma cell): 0.3 µg/mL (≈ 0.488 µM)
- EC50 (P388): 0.2 µg/mL (≈ 0.325 µM)
- EC50 (Fibrosarcoma cell line): 0.4 µg/mL (≈ 0.651 µM)
- EC50 (Lung cancer cell line): 0.7 µg/mL (≈ 1.14 µM)
- EC50 (KB [1]): 0.4 µg/mL (≈ 0.651 µM)

Compound: COC1=C(OC)[C@@]2(OC)c3c(O)c(OC)c4c(c3O[C@@]23O[C@@H](c2ccccc2)CC=C3C1=O)[C@@H](O)C[C@H](c1ccccc1)O4
- EC50 (U373 MG): 0.3 µg/mL (≈ 0.499 µM)
- EC50 (A-431): 0.2 µg/mL (≈ 0.333 µM)
- EC50 (BC1 cell line): 1.4 µg/mL (≈ 2.33 µM)
- EC50 (Colon carcinoma cell): 0.3 µg/mL (≈ 0.499 µM)
- EC50 (P388): 0.42 µg/mL (≈ 0.699 µM)
- EC50 (Fibrosarcoma cell line): 0.8 µg/mL (≈ 1.33 µM)
- EC50 (Lung cancer cell line): 1.6 µg/mL (≈ 2.66 µM)
- EC50 (KB [1]): 1.2 µg/mL (≈ 2 µM)
- EC50 (KB [2]): 8.6 µg/mL (≈ 14.3 µM)

Compound: COC1=C(OC)[C@@]2(OC)c3c(O)c(OC)c4c(c3O[C@@]23O[C@@H](c2ccccc2)CC=C3C1=O)[C@@H](OC)C[C@H](c1ccccc1)O4 [CALYCOPTERONE]
- EC50 (U373 MG): 0.1 µg/mL (≈ 0.163 µM)
- IC50 (HT-29; ht-29): 240 nM and 930 nM
- IC50 (SK-OV-3 [3]): 125 nM and 1000 nM
- EC50 (A-431): 1 µg/mL (≈ 1.63 µM)
- EC50 (BC1 cell line): 5.4 µg/mL (≈ 8.79 µM)
- IC50 (SK-VLB [4]): 1900 nM
- EC50 (Colon carcinoma cell): 0.4 µg/mL (≈ 0.651 µM)
- EC50 (P388): 0.78 µg/mL (≈ 1.27 µM)
- EC50 (Fibrosarcoma cell line): 1.8 µg/mL (≈ 2.93 µM)
- EC50 (Lung cancer cell line): 1.2 µg/mL (≈ 1.95 µM)
- EC50 (KB [1]): 0.8 µg/mL (≈ 1.3 µM)
- EC50 (KB [2]): 9.6 µg/mL (≈ 15.6 µM)

Compound: COc1cc(-c2oc3cc(OC)c(OC)c(O)c3c(=O)c2OC)ccc1O [CHRYSOSPLENOL B]
- EC50 (U373 MG): > 20 µg/mL
- IC50 (HT-29; Homo sapiens, HT-29): 14200 nM
- EC50 (A-431): > 20 µg/mL
- EC50 (BC1 cell line): > 20 µg/mL
- EC50 (Colon carcinoma cell): > 20 µg/mL
- IC50 (SK-OV-3 [5]): 79000 nM
- EC50 (P388): > 20 µg/mL
- IC50 (SK-VLB [6]): > 133000 nM
- EC50 (Fibrosarcoma cell line): 4.2 µg/mL (≈ 11.2 µM)
- EC50 (Lung cancer cell line): > 20 µg/mL
- EC50 (KB [1]): > 20 µg/mL
- EC50 (KB [2]): 0.8 µg/mL (≈ 2.14 µM)

Compound: COc1cccc2c1C(=O)c1c(O)c3c(c(O)c1C2=O)C[C@@](O)(C(=O)CO)C[C@@H]3O[C@H]1C[C@H](N)[C@H](O)[C@H](C)O1 [DOXORUBICIN]
- IC50 (HT-29; Homo sapiens, HT-29): 180 nM
- IC50 (SK-OV-3 [5]): 43 nM
- IC50 (SK-VLB [6]): > 10000 nM

Reference: ChEMBL document CHEMBL1127510, “Plant antitumor agents. 31. The calycopterones, a new class of biflavonoids with novel cytotoxicity in a diverse panel of human tumor cell lines” (J Med Chem, 1994)
